Measured values published in US20090118135A1, “METHODS AND COMPOUNDS FOR REGULATING APOPTOSIS” (The Burnham Institute, priority 2007, published 2009).

Biological target: T1, GST-Bfl-1 (Homo sapiens, UniProt Q16548)
T1 construct: lacking their C-terminal transmembrane domains (about the last 20 amino acids) (“ΔTM”); made in house; host or cells: XL-1 Blue E. coli, pGEX 4T-1
T1 sequence (Q16548 1-155 limits assumed): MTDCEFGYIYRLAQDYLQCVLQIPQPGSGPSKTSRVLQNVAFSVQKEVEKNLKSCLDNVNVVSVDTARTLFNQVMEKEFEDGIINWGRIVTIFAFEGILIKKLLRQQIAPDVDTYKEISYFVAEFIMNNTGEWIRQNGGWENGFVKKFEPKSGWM
Test: Bfl-1/FITC-Bid BH3 competitive fluorescence polarization assay
Type: binding
Details: primary HTS hits, MLSCN library (PubChem SIDs), Table 5B
Procedure: A FPA was performed to determine the binding affinity of FITC-Bid BH3 peptide to Bcl-2 proteins. […] IC50 determinations were performed using GraphPad Prism software (GraphPad, Inc., San Diego, Calif.). FPA competition assays were performed using the same procedure described above, except that 100 nM of GST-Bfl-1 protein in a volume of 45 μl was incubated with 5 μl (50 μM) test compounds in DMSO per well for 30 min prior to addition of 50 μl (5 nM) FITC-Bid BH3 peptide. The final DMSO concentration was 5% when the reactions brought to fall volume of 100 μl. Fluorescence polarization was measured after 10 min. Compounds that reduced the fluorescence polarization by 50% were considered hits.

Row | SMILES | % Activity | FRatio
1 | CC(=O)C1=C(C)OC(N)=C(C#N)C1c1ccco1 (stereo not shown) [Compound 857779] | 65.4% | 1.13
2 | COc1cc2c(C#N)c(N3CCN(C)CC3)nc(N)c2c(N)n1 [Compound 14746488] | 51.4% | 0.92
3 | CC(=N)/C(C#N)=C(/O)CSc1nnc(Nc2c(C)cccc2C)s1 [Compound 3715042] | 63.1% | 0.63
4 | O=C1NC(=O)[C@]2(Cc3ccccc3N3CCN(c4ccccc4)CC32)C(=O)N1c1ccccc1 (stereo partly shown) [Compound 865821] | 53.1% | 1.21
5 | O=C(Nc1ccc(N2CCCC2)cc1)C(c1ccccc1)c1ccccc1 [Compound 14730995] | 64.1% | 0.9
6 | COc1ccc(N2Cc3cccc(C(=O)O)c3C2=O)cc1 [Compound 7969281] | 113.7% | 0.86
7 | COc1ccc(-c2coc3c(CN4CCCCC4)c(O)c(CN4CCCCC4)c(O)c3c2=O)cc1 [Compound 4244723] | 82.5% | 0.51
8 | C=CCSc1nnc2nc3c(nn12)c1cc(C)ccc1n3CC=C [Compound 7973953] | 69.4% | 0.82
9 | COc1cccc(N2CCN(Cc3ccsc3)CC2)c1 [Compound 14746122] | 56.1% | 0.85
10 | COC(=O)c1[nH]c2cccc(OC)c2c1NC(=O)CCN1CCC(C(N)=O)CC1 [Compound 863493] | 71.7% | 0.76
11 | CC(=O)c1sc2nc(SCC(=O)N3CCCCC3)nc(O)c2c1C [Compound 4259313] | 57% | 0.82
12 | COc1ccc2c(c1)c(=O)oc1cc(OCC(=O)N3CCC(C)CC3)ccc12 [Compound 4257486] | 104.8% | 0.49
13 | COc1ccccc1CNC(=O)COC(=O)c1cc(-c2ccco2)nc2ccccc12 [Compound 17385737] | 70.8% | 0.81
14 | Cc1cccc2cc(C(c3nnnn3C(C)(C)C)N(Cc3ccco3)CC3CCCO3)c(O)nc12 (stereo not shown) [Compound 14720806] | 64.5% | 0.95
15 | Cc1ccc2c(c1C)NC(C(=O)O)C1CC=CC21 (stereo not shown) [Compound 844096] | 98.3% | 0.53
16 | COc1ccc(-c2nc3n(n2)C(c2cccnc2)C(C(N)=O)=C(C)N3)cc1 (stereo not shown) [Compound 4250160] | 88.5% | 0.81
17 | O=C(COC(=O)CC12CC3CC(CC(C3)C1)C2)Nc1ncc(Cl)cc1Cl [Compound 14744137] | 52% | 1.16
18 | CCC1=[N+](C)CCn2c(C)ccc21 [Compound 14734567] | 57.1% | 1
19 | Cc1c(C(=O)OCC2CCCO2)[nH]c2c1C(=O)CC(c1ccco1)C2 (stereo not shown) [Compound 4244684] | 54.3% | 0.79
20 | Cc1ccc(-c2nnc(S)n2/N=C/C=C/c2ccccc2[N+](=O)[O-])cc1 [Compound 14729394] | 55.5% | 0.81
21 | c1ccc(CSc2nnc(-c3ccco3)c(-c3ccco3)n2)cc1 [Compound 4260465] | 93.8% | 0.72

Row | SMILES | % Activity | FRatio
22 | COC(=O)c1cccc(NC(=O)CSc2nc(C)cc(O)n2)c1 [Compound 4262437] | 59.9% | 0.64
23 | c1ccc(-c2nn3c(Cn4nnc5ccccc54)nnc3s2)nc1 [Compound 865899] | 82.6% | 1.32
24 | CCOc1ccc2nc(O)c(O)nc2c1 [Compound 4261310] | 69.6% | 1.46
25 | COC(=O)C1=C(C)N(c2ccccc2)/C(=C/c2cccs2)C1=O [Compound 17415043] | 65.7% | 0.53
26 | O=c1nc2s/c(=C\c3ccco3)c(=O)n2nc1Cc1ccc(F)cc1 [Compound 863170] | 58.4% | 0.32
27 | O=c1oc2c3c4c(cc2s1)CCCN4CCC3 [Compound 7978324] | 66.9% | 1.02
28 | O=C(COC(=O)c1cncc(Br)c1)NCc1ccco1 [Compound 3715512] | 55.4% | 0.95
29 | O=C(OCC(=O)N1CCN(C(=O)c2ccco2)CC1)c1cc(-c2ccco2)nc2ccccc12 [Compound 14745657] | 73.4% | 0.97
30 | Cn1c(=N)c(S(=O)(=O)c2ccccc2)cc2c(=O)n3ccccc3nc21 [Compound 859963] | 50.4% | 1.49
31 | COc1ccc2c(c1)c(=O)oc1cc(OCC(=O)N3CCc4ccccc4C3)ccc12 [Compound 14730322] | 59.7% | 0.75
32 | CN(C)c1ccc(NC(=O)Cn2cc3c(n2)CCCC3)cc1 [Compound 7968138] | 57.6% | 0.56
33 | CC(=O)Nc1ccc(S(=O)(=O)/N=C2/C(=O)c3ccccc3C(O)=C2N2CCN(Cc3ccccc3)CC2)cc1 [Compound 14742166] | 50.6% | 0.73
34 | Cc1cc(C)c2cc3c(ccn3C3OC[C@H](O)[C@H](O)[C@H]3O)cc2n1 (stereo partly shown) [Compound 4247900] | 52.1% | 1.1
35 | CSc1ccccc1NC(=O)c1noc2c1CCC2 [Compound 4244309] | 75.7% | 0.44
36 | Cc1ccccc1NC(=O)CSc1nnc(-c2ccco2)c(-c2ccco2)n1 [Compound 14742395] | 56.3% | 1.09
37 | O=C1CCCC2=C1C(c1ccco1)Nc1ccc3ccccc3c12 (stereo not shown) [Compound 7975176] | 52.2% | 0.73
38 | CCS(=O)(=O)NCc1ccc2c(c1)cc(C)n2C [Compound 14733498] | 51.8% | 1
39 | CC(=O)c1c(COC(=O)c2ccco2)nc2ccccc2[n+]1[O-] [Compound 863818] | 68.3% | 0.88
40 | Cc1ccccc1C1C(=O)c2sc3nc4c(c(=O)n3c2C1=O)CCC4 (stereo not shown) [Compound 7977096] | 50.8% | 0.88
41 | COc1ccc(S(=O)(=O)N2CCCC2C(=O)Nc2nnc(-c3cccnc3)s2)cc1 (stereo not shown) [Compound 3713012] | 50.9% | 0.9
42 | Cc1c(CN(C)C)c2c(n1Cc1ccccc1)C(=O)c1ccc(Br)cc1-2 [Compound 14742663] | 78.5% | 0.61

Row | SMILES | % Activity | FRatio
43 | O=C(CSc1nc(O)c2ccccc2n1)c1ccc(O)c(O)c1 [Compound 4242102] | 64.2% | 0.57
44 | O=C1c2ccccc2C(=O)c2c1cccc2N1CCN(CCO)CC1 [Compound 17403435] | 56.9% | 1.3
45 | Cc1ccc2c(Cl)cc(Cl)c(OCC(=O)NCc3ccco3)c2n1 [Compound 14747102] | 56.5% | 0.8
46 | Cc1ccc(S(=O)(=O)Cc2ccc(C(=O)O)o2)cc1 [Compound 14737647] | 66.5% | 0.86
47 | O=C(O)c1cccc(-n2cccc2/C=N/O)c1 [Compound 4243236] | 70% | 0.86
48 | Cc1ccc(-[n+]2c(-c3ccc(Br)cc3)cn3c2CCc2ccc4cccnc4c2-3)cc1 [Compound 14745910] | 56.2% | 0.81
49 | CC(C)CN(C(=O)COC(=O)c1cc2c(s1)CCC2)C1CCS(=O)(=O)C1 (stereo not shown) [Compound 3714271] | 53.1% | 0.67
50 | CCc1ccccc1NC(=O)c1cc2ncc(Br)cn2n1 [Compound 14733824] | 74.2% | 0.79
51 | O=C(c1coc(=O)c(Br)c1)N1CCOCC1 [Compound 860621] | 84.9% | 0.55
52 | Oc1ccc(Nc2nc(N3CCCC3)c3ccccc3n2)cc1 [Compound 852615] | 96.1% | 0.46
53 | COc1ccc(NC(=O)c2cc(CN3C(=O)c4ccccc4C3=O)ccc2OC)cn1 [Compound 3713992] | 66.9% | 1.47
54 | CC(=O)Nc1ccc(OC(=O)CC2SC(=O)NC2=O)cc1 (stereo not shown) [Compound 860139] | 68.2% | 1.06
55 | CCN(CC)CCc1c(C)[nH]c(C(=O)OCc2ccccc2)c1C [Compound 853427] | 70.8% | 1
56 | Cc1c[nH]c2cccc(OCC(O)CNC(C)(C)C)c12 (stereo not shown) [Compound 856249] | 52.2% | 0.65
57 | CC(=O)c1c(CC(=O)O)nn(-c2nc3ccccc3s2)c1O [Compound 14746319] | 69% | 0.7
58 | Cc1cnnn1-c1ccc(C(=O)CCl)cc1 [Compound 14744853] | 52.9% | 0.82
59 | CCOC(=O)c1ccc(NC2=CC(=O)C(=O)c3ccccc32)cc1 [Compound 14737410] | 89.5% | 1.15
60 | O=C(CCN1CCc2ccccc21)c1ccc2c(c1)OCCO2 [Compound 857910] | 79.4% | 0.24
61 | CC1CC(C)CN(C(=O)c2ccc3c(c2NCCO)C(=O)c2ccccc2C3=O)C1 (stereo not shown) [Compound 14734023] | 83.7% | 0.97
62 | Nc1cc2nsnc2cc1Br [Compound 17407909] | 58.5% | 1.42
